Data set [1] is described as follows: Metabolic stability in human liver microsomes assessed as parent compound remaining incubated for 10 mins. The conditions noted are these: read-out: Stabilty. The format is ADME, Microsome.
The next data set addresses T1, PXR (Homo sapiens, UniProt O75469).
T1 sequence (O75469 whole entry): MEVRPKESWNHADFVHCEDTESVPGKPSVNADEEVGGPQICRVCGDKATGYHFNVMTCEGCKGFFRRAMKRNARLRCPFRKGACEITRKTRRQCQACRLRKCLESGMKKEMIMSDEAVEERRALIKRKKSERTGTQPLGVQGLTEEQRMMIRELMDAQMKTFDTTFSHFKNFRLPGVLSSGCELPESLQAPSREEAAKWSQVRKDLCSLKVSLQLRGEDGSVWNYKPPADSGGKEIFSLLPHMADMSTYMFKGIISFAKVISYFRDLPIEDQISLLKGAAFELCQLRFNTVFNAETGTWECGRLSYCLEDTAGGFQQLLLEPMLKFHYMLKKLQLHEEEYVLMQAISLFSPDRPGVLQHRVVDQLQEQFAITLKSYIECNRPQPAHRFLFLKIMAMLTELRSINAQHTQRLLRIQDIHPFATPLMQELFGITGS
The experiment in a line: (§1) Activation of PXR (unknown origin) relative to rifampicin. To be noted: read-out: %max.

Data set [2] deals with T2, Nuclear receptor subfamily 1 group I member 2 (Homo sapiens, UniProt O75469).
T2 sequence (O75469 whole entry): T1 sequence (O75469 whole entry)
The experiment in a line: Activation of PXR (unknown origin).

Data set [3] in a line: Metabolic stability in mouse liver microsomes assessed as parent compound remaining incubated for 10 mins. It counts as ADME, Microsome. To be noted: read-out: Stabilty.
Data set [4] addresses T2, Nuclear receptor subfamily 1 group I member 2. The data set is described as §1.
The target in data set [5] is T3, Nuclear receptor ROR-gamma (Homo sapiens, UniProt P51449).
T3 sequence (P51449 whole entry): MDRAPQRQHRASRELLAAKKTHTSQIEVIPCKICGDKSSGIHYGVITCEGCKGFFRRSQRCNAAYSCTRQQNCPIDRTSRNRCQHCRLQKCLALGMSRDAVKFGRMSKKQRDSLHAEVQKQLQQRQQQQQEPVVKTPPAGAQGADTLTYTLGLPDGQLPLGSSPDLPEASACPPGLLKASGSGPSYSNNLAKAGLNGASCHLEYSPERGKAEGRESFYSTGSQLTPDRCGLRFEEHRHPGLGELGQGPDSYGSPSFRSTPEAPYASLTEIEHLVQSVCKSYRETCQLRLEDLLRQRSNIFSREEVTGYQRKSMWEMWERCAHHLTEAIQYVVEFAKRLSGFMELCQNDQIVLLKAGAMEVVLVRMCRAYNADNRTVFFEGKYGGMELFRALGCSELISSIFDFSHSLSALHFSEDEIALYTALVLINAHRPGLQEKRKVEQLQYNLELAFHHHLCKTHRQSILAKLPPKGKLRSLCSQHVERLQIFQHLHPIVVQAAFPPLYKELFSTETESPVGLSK
The experiment in a line: Inverse agonist activity at RORgammat (unknown origin) expressed in Jurkat cells by reporter assay. The format is cell-based.

Data set [6] concerns the target T4, Nuclear receptor ROR-beta (Homo sapiens, UniProt Q92753).
T4 sequence (Q92753 whole entry): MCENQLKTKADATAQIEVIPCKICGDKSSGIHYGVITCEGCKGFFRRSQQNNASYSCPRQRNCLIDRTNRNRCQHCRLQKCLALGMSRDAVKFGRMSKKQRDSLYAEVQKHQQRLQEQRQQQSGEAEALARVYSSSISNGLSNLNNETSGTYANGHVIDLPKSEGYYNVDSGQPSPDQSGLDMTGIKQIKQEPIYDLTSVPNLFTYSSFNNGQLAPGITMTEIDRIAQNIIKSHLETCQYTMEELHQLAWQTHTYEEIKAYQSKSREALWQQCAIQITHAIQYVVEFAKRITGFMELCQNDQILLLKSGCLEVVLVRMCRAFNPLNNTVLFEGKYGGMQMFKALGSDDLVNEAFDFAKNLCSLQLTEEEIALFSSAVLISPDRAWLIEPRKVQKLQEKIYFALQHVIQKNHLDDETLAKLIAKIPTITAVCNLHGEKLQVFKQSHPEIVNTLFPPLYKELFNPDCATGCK
As to the kind of experiment: Inverse agonist activity at ROR-beta (unknown origin) expressed in Jurkat cells by gal4 reporter assay. The format is cell-based.

Data set [7] concerns the target T5, Nuclear receptor ROR-alpha (Homo sapiens, UniProt P35398).
T5 sequence (P35398 whole entry): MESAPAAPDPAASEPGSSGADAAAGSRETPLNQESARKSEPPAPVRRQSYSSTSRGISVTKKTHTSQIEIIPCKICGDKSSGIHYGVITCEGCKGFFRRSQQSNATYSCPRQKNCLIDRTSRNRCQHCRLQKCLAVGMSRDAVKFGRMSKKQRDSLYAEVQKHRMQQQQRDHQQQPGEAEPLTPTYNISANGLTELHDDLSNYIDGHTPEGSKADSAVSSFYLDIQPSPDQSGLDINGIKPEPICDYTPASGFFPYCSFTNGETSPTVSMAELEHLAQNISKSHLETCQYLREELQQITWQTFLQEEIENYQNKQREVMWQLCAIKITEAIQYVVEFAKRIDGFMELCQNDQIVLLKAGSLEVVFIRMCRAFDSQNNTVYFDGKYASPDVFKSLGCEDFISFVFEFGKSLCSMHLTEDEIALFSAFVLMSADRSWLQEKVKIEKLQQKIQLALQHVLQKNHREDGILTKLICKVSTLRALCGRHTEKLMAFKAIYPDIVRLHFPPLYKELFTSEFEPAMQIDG
The experiment in a line: Inverse agonist activity at ROR-alpha (unknown origin) expressed in Jurkat cells by gal4 reporter assay. It counts as cell-based.

`C[C@@]1(c2ccc(F)cc2)CN(C(=O)NCc2ccccc2)C[C@@H]1c1ccc(C(O)(C(F)(F)F)C(F)(F)F)cc1`: the remaining at 10 min in data set [1] is 58%; in data set [3] it was 17%. In addition, the Emax at PXR worked out at 80%. In data set [2], this molecule yielded a concentration for a half-maximal effect (EC50) of 472 nM.

Consider `CC(=O)N1CCC(C(=O)N2C[C@@H](c3ccc(C(O)(C(F)(F)F)C(F)(F)F)cc3)[C@@](C)(c3ccc(F)cc3)C2)CC1`, for which the remaining at 10 min in data set [1] is 86%; in data set [3] it was 81%. For the same molecule, the Emax at PXR amounted to 61%. Further, the midpoint of the response in data set [2], the EC50, lay at 1080 nM.

In the case of `CC(=O)N1CCC(C(=O)N2C[C@@H](c3ccc(C(F)(C(F)(F)F)C(F)(F)F)cc3)[C@@](C)(c3ccc(F)cc3)C2)CC1`, the Emax on PXR was found to be 15%. In data set [2], this molecule yielded an EC50 of more than 50000 nM.

With `C[C@]1(c2ccc(F)cc2)CN(C(=O)C2CCN(C(=O)CO)CC2)C[C@H]1c1ccc(C(O)(C(F)(F)F)C(F)(F)F)cc1`, the remaining at 10 min was 86% in data set [1] and 82% in data set [3].

Regarding `C[C@]1(c2ccc(F)cc2)CN(C(=O)NCc2ccncc2)C[C@H]1c1ccc(C(O)(C(F)(F)F)C(F)(F)F)cc1`, the remaining at 10 min in data set [1] was determined as 11%; in data set [3], 1%.

Consider `CC(=O)N1CCC(C(=O)N2C[C@@H](c3ccc(C(O)(C(F)(F)F)C(F)(F)F)cc3)[C@@](C)(c3ccccc3)C2)CC1`, for which the remaining at 10 min in data set [1] came out at 89%; in data set [3], 75%.

For the molecule `C[C@]1(c2ccc(F)cc2)CN(C(=O)NCc2ccccc2)C[C@H]1c1ccc(C(O)(C(F)(F)F)C(F)(F)F)cc1`, the results for the remaining at 10 min in data set [1] and in data set [3] were 73% and 67%, respectively. Also, the “%max” value in data set [4] is on record as 98%. This molecule registered a concentration giving a half-maximal response (EC50) in data set [2] of 559 nM.

As to `C[C@]1(c2ccc(F)cc2)CN(C(=O)NCc2ccc(C#N)cc2)C[C@H]1c1ccc(C(O)(C(F)(F)F)C(F)(F)F)cc1`, the remaining at 10 min in data set [1] was 76%; in data set [3], 51%. A half-maximal response in data set [5] (EC50) required 0.074 µM.

For the molecule `C[C@]1(c2ccc(F)cc2)CN(C(=O)C2CCN(C(=O)CC#N)CC2)C[C@H]1c1ccc(C(O)(C(F)(F)F)C(F)(F)F)cc1`, the figures for the remaining at 10 min in data set [1] and in data set [3] were 80% and 79%, respectively. The Emax at PXR is 46%. Also, the EC50 in data set [2] is 495 nM; in data set [6] it was more than 40 µM; in data set [7], more than 40 µM.

In the case of `C[C@]1(c2ccc(F)cc2)CN(C(=O)NCc2ccc3c(c2)OCO3)C[C@H]1c1ccc(C(O)(C(F)(F)F)C(F)(F)F)cc1`, the remaining at 10 min in data set [1] came out at 54%; in data set [3] it was 65%.

Consider `C[C@]1(c2ccc(F)cc2)CN(C(=O)C2CCN(C(=O)C(N)=O)CC2)C[C@H]1c1ccc(C(O)(C(F)(F)F)C(F)(F)F)cc1`, for which the remaining at 10 min in data set [1] came out at 91%; in data set [3], 87%. Besides, on PXR, the Emax was determined as 73%. Further, the EC50 in data set [2] was 995 nM.

For the molecule `C[C@]1(c2ccc(F)cc2)CN(C(=O)C2CCN(S(C)(=O)=O)CC2)C[C@H]1c1ccc(C(O)(C(F)(F)F)C(F)(F)F)cc1`, the remaining at 10 min came to 90% in data set [1] and 80% in data set [3]. The Emax at PXR amounted to 78%. The molecule further returned a concentration for a half-maximal effect (EC50) in data set [2] of 151 nM.

Take `C[C@]1(c2ccc(F)cc2)CN(C(=O)C2CCN(C(N)=O)CC2)C[C@H]1c1ccc(C(O)(C(F)(F)F)C(F)(F)F)cc1`: the remaining at 10 min turned out to be 97% in data set [1] and 100% in data set [3]. Besides, at PXR, the Emax was 72%. Besides, the EC50 in data set [2] is 1060 nM.

`COCC(=O)N1CCC(C(=O)N2C[C@@H](c3ccc(C(O)(C(F)(F)F)C(F)(F)F)cc3)[C@@](C)(c3ccc(F)cc3)C2)CC1`: the remaining at 10 min in data set [1] is 54%; in data set [3], 49%. Also, the Emax at PXR turned out to be 52%. The 50% effective concentration (EC50) in data set [2] was 1550 nM.

`CCS(=O)(=O)c1ccc(CNC(=O)N2C[C@@H](c3ccc(C(O)(C(F)(F)F)C(F)(F)F)cc3)[C@@](C)(c3ccc(F)cc3)C2)cc1`: the remaining at 10 min was 32% in data set [1] and 51% in data set [3]. In addition, at PXR, the Emax is 100%. This molecule displayed an EC50 in data set [2] of 5 nM.

For `COc1ccc(CNC(=O)N2C[C@@H](c3ccc(C(O)(C(F)(F)F)C(F)(F)F)cc3)[C@@](C)(c3ccc(F)cc3)C2)cc1`, the remaining at 10 min in data set [1] was 68%; in data set [3], 67%. Also, the Emax at PXR was 84%. This molecule also gave an EC50 in data set [2] of 189 nM.

For the molecule `CC(=O)N1CCC(C(=O)N2C[C@H](c3ccc(C(O)(C(F)(F)F)C(F)(F)F)cc3)[C@](C)(c3ccccc3)C2)CC1`, the remaining at 10 min came to 74% in data set [1] and 79% in data set [3].

`CC(=O)N1C[C@@H](c2ccc(C(O)(C(F)(F)F)C(F)(F)F)cc2)[C@@](C)(c2ccccc2)C1` (racemic): on PXR, the Emax was 110%. In data set [2], this molecule gave an EC50 of 361 nM.

Take `C[C@]1(c2ccccc2)CN(C(=O)c2ccccc2)C[C@H]1c1ccc(C(O)(C(F)(F)F)C(F)(F)F)cc1` (racemic): the Emax on PXR is 93%. In addition, the response in data set [2] was half-maximal at 740 nM (EC50).

Regarding `C[C@]1(c2ccccc2)CN(S(C)(=O)=O)C[C@H]1c1ccc(C(O)(C(F)(F)F)C(F)(F)F)cc1` (racemic), on PXR, the Emax amounted to 110%. Besides, a half-maximal response in data set [2] (EC50) required 257 nM.

Turning to `C[C@]1(c2ccc(F)cc2)CN(C(=O)NCc2ccccc2)C[C@H]1c1ccc(C(O)(C(F)(F)F)C(F)(F)F)cc1` (racemic), the Emax on PXR was determined as 79%. In data set [2], this molecule came in with a concentration for a half-maximal effect (EC50) of 474 nM.

Consider `C[C@]1(c2ccccc2)CNC[C@H]1c1ccc(C(O)(C(F)(F)F)C(F)(F)F)cc1` (racemic), for which the Emax at PXR was found to be 39%. The EC50 in data set [2] was found to be 1250 nM; in data set [5] it was 7.91 µM.

Turning to `CCNC(=O)N1C[C@@H](c2ccc(C(O)(C(F)(F)F)C(F)(F)F)cc2)[C@@](C)(c2ccccc2)C1` (racemic), the Emax at PXR worked out at 73%. The same molecule registered an EC50 in data set [2] of 1780 nM.

Consider `C[C@@]1(c2ccc(C(O)(C(F)(F)F)C(F)(F)F)cc2)CN(C(=O)NCc2ccccc2)C[C@@H]1c1ccccc1` (racemic), for which, on PXR, the Emax amounted to 84%. The same molecule yielded an EC50 in data set [2] of 60 nM.

As for `C[C@]1(c2ccccc2)CN(CC(N)=O)C[C@H]1c1ccc(C(O)(C(F)(F)F)C(F)(F)F)cc1` (racemic), the Emax on PXR is 96%. Besides, the half-maximal effective concentration (EC50) in data set [2] turned out to be 276 nM.

The record behind these values is ChEMBL document CHEMBL4725306, “Discovery of (3S,4S)-3-methyl-3-(4-fluorophenyl)-4-(4-(1,1,1,3,3,3-hexafluoro-2-hydroxyprop-2-yl)phenyl)pyrrolidines as novel RORγt inverse agonists” (Bioorg Med Chem Lett, 2020).
